PMC6820788, “Structural insights of human mitofusin-2 into mitochondrial fusion and CMT2A onset” (Nature Communications, 2019)
Where a chain is given by its changes, count along the chain named.

What was measured:
mouse MFN1IM (mm) = molecular target: T1, mouse MFN1IM (mm) (Mus musculus, UniProt Q811U4); experiment: GTP hydrolysis, HPLC; assay type: biochemical; settings: 37 °C, pH 7.5, 150 mM KCl, 5 mM MgCl2
T1 construct: gene Mfn1; internally truncated counterpart of human MFN1IM
T1 sequence (Q811U4 1-364 limits assumed): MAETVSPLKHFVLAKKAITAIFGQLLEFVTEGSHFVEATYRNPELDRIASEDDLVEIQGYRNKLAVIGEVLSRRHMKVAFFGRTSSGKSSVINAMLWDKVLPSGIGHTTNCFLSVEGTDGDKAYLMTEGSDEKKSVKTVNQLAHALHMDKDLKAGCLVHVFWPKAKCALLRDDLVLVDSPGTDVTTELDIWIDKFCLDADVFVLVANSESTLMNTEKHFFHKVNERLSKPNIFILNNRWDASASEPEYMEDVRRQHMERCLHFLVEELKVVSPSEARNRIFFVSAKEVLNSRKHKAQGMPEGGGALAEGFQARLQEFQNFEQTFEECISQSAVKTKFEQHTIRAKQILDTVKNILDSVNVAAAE
T1 sequence (Q811U4 695-741 limits assumed): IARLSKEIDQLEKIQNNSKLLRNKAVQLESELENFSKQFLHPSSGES

mouse MFN2IM (mm) = molecular target: T2, mouse MFN2IM (mm) (Mus musculus, UniProt Q80U63); experiment: GTP hydrolysis, HPLC; assay type: biochemical; settings: 37 °C, pH 7.5, 150 mM KCl, 5 mM MgCl2
T2 construct: gene Mfn2; internally truncated counterpart of human MFN2IM
T2 sequence (Q80U63 22-400 limits assumed): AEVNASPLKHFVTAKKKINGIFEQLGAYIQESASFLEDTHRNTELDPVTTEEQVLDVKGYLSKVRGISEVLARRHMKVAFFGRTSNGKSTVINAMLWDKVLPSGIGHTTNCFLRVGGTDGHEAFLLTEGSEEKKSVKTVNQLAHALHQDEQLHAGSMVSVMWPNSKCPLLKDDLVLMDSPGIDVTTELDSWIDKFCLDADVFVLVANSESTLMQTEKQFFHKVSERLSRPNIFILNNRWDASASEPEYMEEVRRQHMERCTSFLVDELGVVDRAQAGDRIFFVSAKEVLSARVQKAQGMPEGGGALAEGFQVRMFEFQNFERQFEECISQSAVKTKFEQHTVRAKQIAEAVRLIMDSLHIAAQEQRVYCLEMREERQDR
T2 sequence (Q80U63 706-757 limits assumed): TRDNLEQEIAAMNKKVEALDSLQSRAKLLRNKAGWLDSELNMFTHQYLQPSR

MFN1IM [1] = molecular target: T3, MFN1IM (Homo sapiens, UniProt Q8IWA4, I108T/DEL365-694); experiment: stopped-flow fluorescence, displacement by unlabeled GDP; assay type: binding; settings: labelled compound; pH 7.5, 150 mM KCl, 5 mM MgCl2
T3 construct: gene MFN1; internally truncated (residues 365-694 removed, G domain + HD1); E. coli; His6 cut by PreScission
T3 sequence (Q8IWA4 1-364 I108T): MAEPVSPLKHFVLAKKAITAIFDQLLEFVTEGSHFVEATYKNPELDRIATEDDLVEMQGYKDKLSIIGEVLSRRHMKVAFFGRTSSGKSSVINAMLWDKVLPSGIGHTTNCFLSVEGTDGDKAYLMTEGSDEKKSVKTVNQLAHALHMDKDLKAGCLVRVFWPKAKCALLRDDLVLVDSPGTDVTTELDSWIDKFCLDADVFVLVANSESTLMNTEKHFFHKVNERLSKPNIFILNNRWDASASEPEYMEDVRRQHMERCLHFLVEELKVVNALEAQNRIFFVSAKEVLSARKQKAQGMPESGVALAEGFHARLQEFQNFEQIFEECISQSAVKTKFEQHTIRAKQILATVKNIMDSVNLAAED
T3 sequence (Q8IWA4 695-741): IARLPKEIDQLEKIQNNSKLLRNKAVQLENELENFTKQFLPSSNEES

MFN2IM [2] = molecular target: T4, MFN2IM (Homo sapiens, UniProt O95140, T129I/DEL401-705); experiment: as above; assay type: binding; settings: labelled compound; pH 7.5, 150 mM KCl, 5 mM MgCl2
T4 construct: gene MFN2; deletion of residues 1-21 and 401-705 (G domain + HD1); E. coli; N-terminal His6 cut by PreScission
T4 sequence (O95140 22-400 T129I): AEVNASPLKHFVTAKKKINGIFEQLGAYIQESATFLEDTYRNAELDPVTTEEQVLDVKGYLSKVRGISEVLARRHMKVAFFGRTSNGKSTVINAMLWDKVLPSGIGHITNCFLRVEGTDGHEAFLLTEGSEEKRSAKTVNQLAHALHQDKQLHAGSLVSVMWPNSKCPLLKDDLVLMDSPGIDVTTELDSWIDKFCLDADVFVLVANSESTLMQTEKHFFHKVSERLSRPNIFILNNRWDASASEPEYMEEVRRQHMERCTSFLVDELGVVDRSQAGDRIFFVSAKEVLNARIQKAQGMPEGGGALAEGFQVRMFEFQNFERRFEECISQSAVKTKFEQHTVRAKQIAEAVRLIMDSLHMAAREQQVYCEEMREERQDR
T4 sequence (O95140 706-757): T2 sequence (Q80U63 706-757 limits assumed) with D3E, V16I, A18V, R25K

MFN1IM [3] = molecular target: T5, MFN1IM (Homo sapiens, UniProt Q8IWA4, DEL365-694); experiment: stopped-flow fluorescence, nucleotide exchange; assay type: binding; settings: labelled compound; protein preincubated with GDP; pH 7.5, 150 mM KCl, 5 mM MgCl2
T5 construct: gene MFN1; internally truncated (residues 365-694 removed, G domain + HD1); E. coli; His6 cut by PreScission
T5 sequence (Q8IWA4 1-364): T3 sequence (Q8IWA4 1-364 I108T) with T108I
T5 sequence (Q8IWA4 695-741): T3 sequence (Q8IWA4 695-741)

MFN2IM [4] = molecular target: T6, MFN2IM (Homo sapiens, UniProt O95140, DEL401-705); experiment: stopped-flow fluorescence, nucleotide exchange; assay type: binding; settings: labelled compound; protein preincubated with GDP; pH 7.5, 150 mM KCl, 5 mM MgCl2
T6 construct: gene MFN2; deletion of residues 1-21 and 401-705 (G domain + HD1); E. coli; N-terminal His6 cut by PreScission
T6 sequence (O95140 22-400): T4 sequence (O95140 22-400 T129I) with I108T
T6 sequence (O95140 706-757): T2 sequence (Q80U63 706-757 limits assumed) with D3E, V16I, A18V, R25K

Compound: Nc1nc2c(ncn2[C@@H]2O[C@H](COP(=O)(O)OP(=O)(O)OP(=O)(O)O)[C@@H](O)[C@H]2O)c(=O)[nH]1 [GTP]
- GTP turnover rate (mouse MFN1IM (mm)): Mouse MFN1IM and MFN2IM showed weak GTPase hydrolysis
- GTP turnover rate (mouse MFN2IM (mm)): Mouse MFN1IM and MFN2IM showed weak GTPase hydrolysis

Compound: CNc1ccccc1C(=O)O[C@H]1[C@@H](O)[C@H](n2cnc3c(=O)[nH]c(N)nc32)O[C@@H]1COP(=O)(O)OP(=O)(O)O [mant-GDP]
- GDP off-rate (MFN1IM [1]): GDP off-rates of MFN2IM(T129I) and MFN1IM(I108T)
- GDP off-rate (MFN2IM [2]): GDP off-rates of MFN2IM(T129I) and MFN1IM(I108T)

Compound: CNc1ccccc1C(=O)O[C@H]1[C@@H](O)[C@H](n2cnc3c(=O)[nH]c(N)nc32)O[C@@H]1COP(=O)(O)OP(=O)(O)OP(=O)(O)O [mant-GTP]
- stopped-flow fluorescence, nucleotide exchange (MFN1IM [3]): G domain dimerization greatly reduced the mant-GTP reload rate of both MFN2IM and MFN1IM
- stopped-flow fluorescence, nucleotide exchange (MFN2IM [4]): MFN2IM bound more mant-GTP over time due to a higher affinity to GTP
